Reference: DBAASP
Converted amounts (≈) assume the structure as drawn.

Assays:
Assay in all cases: ≥ marks a high value that may be exact or a test limit, other limits are often not marked, values filed in µg/mL are converted to µM
Candida albicans = test system: Candida albicans
[1] = test system: Enterococcus faecalis ATCC 29212
Escherichia coli UB1005 = test system: Escherichia coli UB1005
[2] = test system: Pseudomonas aeruginosa 253
[3] = test system: Pseudomonas aeruginosa 910
[4] = test system: Pseudomonas aeruginosa 919
[5] = test system: Pseudomonas aeruginosa H103
[6] = test system: Pseudomonas aeruginosa PAO1
[7] = test system: Salmonella enterica serovar Typhimurium
[8] = test system: Staphylococcus aureus ATCC 25923
[9] = test system: Staphylococcus epidermidis
Escherichia coli W3110 = test system: Escherichia coli W3110
[10] = test system: Klebsiella pneumoniae ATCC BAA-1705

Row | Structure (SMILES) | MIC (Candida albicans) [µM] | MIC [1] [µM] | MIC (Escherichia coli UB1005) [µM] | MIC [2] [µM] | MIC [3] [µM] | MIC [4] [µM] | MIC [5] [µM] | MIC [6] [µM] | MIC [7] [µM] | MIC [8] [µM] | MIC [9] [µM] | MIC (Escherichia coli W3110) [µM] | MIC [10] [µM]
1 | CC[C@H](C)[C@H](NC(=O)[C@H](CCCN=C(N)N)NC(=O)[C@H](CCCN=C(N)N)NC(=O)[C@H](CC(C)C)NC(=O)[C@@H](N)CCCN=C(N)N)C(=O)N[C@H](C(=O)N[C@H](C(=O)N[C@H](C(=O)N[C@@H](CCCN=C(N)N)C(=O)N[C@H](C(=O)N[C@@H](C)C(=O)N[C@@H](CCCN=C(N)N)C(=O)O)C(C)C)[C@@H](C)CC)C(C)C)C(C)C [RLRRIVVIRVAR] | 10.6 (≈ 16 µg/mL) | 5.31 (≈ 8 µg/mL) | 2.65 (≈ 4 µg/mL) | 16 (≈ 24.1 µg/mL) | ≥ 32 | 16 (≈ 24.1 µg/mL) | 5.31 (≈ 8 µg/mL) | 16 (≈ 24.1 µg/mL) | 5.31 (≈ 8 µg/mL) | 5.31 (≈ 8 µg/mL) | 1.33 (≈ 2 µg/mL) | – | –
2 | CC[C@H](C)[C@H](N)C(=O)N[C@@H](CC(C)C)C(=O)N[C@H](C(=O)N[C@@H](C)C(=O)N[C@@H](CS)C(=O)N[C@@H](Cc1c[nH]c2ccccc12)C(=O)NCC(=O)N[C@@H](CC(C)C)C(=O)N[C@@H](CCCCN)C(=O)N[C@@H](CC(C)C)C(=O)N[C@@H](CC(C)C)C(=O)N[C@@H](CCCN=C(N)N)C(=O)N[C@@H](Cc1ccc(O)cc1)C(=O)N[C@@H](CCCN=C(N)N)C(=O)N[C@@H](CCCN=C(N)N)C(=O)N[C@H](C(=O)N[C@@H](Cc1ccc(O)cc1)C(=O)O)[C@@H](C)CC)[C@@H](C)CC [ILIACWGLKLLRYRRIY] | – | – | – | – | – | – | – | – | – | – | – | 4 (≈ 8.6 µg/mL) | ≥ 128
3 | CC[C@H](C)[C@H](N)C(=O)N[C@@H](Cc1c[nH]c2ccccc12)C(=O)N[C@@H](Cc1c[nH]c2ccccc12)C(=O)N[C@@H](C)C(=O)N[C@@H](CCCCN)C(=O)N[C@@H](Cc1c[nH]c2ccccc12)C(=O)NCC(=O)N[C@@H](CC(C)C)C(=O)N[C@@H](CC(=O)O)C(=O)N[C@@H](CC(C)C)C(=O)N[C@@H](CC(C)C)C(=O)N[C@@H](CCCN=C(N)N)C(=O)N[C@@H](Cc1ccc(O)cc1)C(=O)N[C@@H](CCCN=C(N)N)C(=O)N[C@@H](CCCN=C(N)N)C(=O)N[C@H](C(=O)N[C@@H](Cc1c[nH]c2ccccc12)C(=O)O)[C@@H](C)CC [IWWAKWGLDLLRYRRIW] | – | – | – | – | – | – | – | – | – | – | – | ≥ 64 | ≥ 128
4 | CC[C@H](C)[C@H](NC(=O)[C@H](CCCN=C(N)N)NC(=O)[C@H](C)NC(=O)CNC(=O)[C@@H](N)CCCN=C(N)N)C(=O)N[C@H](C(=O)N[C@H](C(=O)N[C@H](C(=O)N[C@@H](CCCN=C(N)N)C(=O)N[C@H](C(=O)N[C@@H](C)C(=O)N[C@@H](CCCN=C(N)N)C(N)=O)C(C)C)[C@@H](C)CC)C(C)C)C(C)C [RGARIVVIRVAR] | 11.7 (≈ 16 µg/mL) | 22.7 (≈ 31 µg/mL) | 5.86 (≈ 7.99 µg/mL) | ≥ 32 | ≥ 32 | 16 (≈ 21.8 µg/mL) | 22.7 (≈ 31 µg/mL) | 32 (≈ 43.7 µg/mL) | 22.7 (≈ 31 µg/mL) | 22.7 (≈ 31 µg/mL) | 11.7 (≈ 16 µg/mL) | – | –
5 | CC[C@H](C)[C@H](NC(=O)[C@H](CCCCN)NC(=O)[C@H](CCCCN)NC(=O)[C@H](Cc1c[nH]c2ccccc12)NC(=O)[C@H](CCCCN)NC(=O)[C@H](Cc1c[nH]c2ccccc12)NC(=O)[C@H](CC(C)C)NC(=O)[C@H](CCCCN)NC(=O)[C@H](CC(C)C)NC(=O)CNC(=O)[C@H](Cc1c[nH]c2ccccc12)NC(=O)[C@H](CCCCN)NC(=O)[C@H](C)NC(=O)[C@H](Cc1c[nH]c2ccccc12)NC(=O)[C@H](CCCN=C(N)N)NC(=O)[C@@H](N)Cc1c[nH]c2ccccc12)C(=O)N[C@@H](Cc1ccc(O)cc1)C(=O)O [WRWAKWGLKLWKWKKIY] | – | – | – | – | – | – | – | – | – | – | – | 2 (≈ 4.75 µg/mL) | 16 (≈ 38 µg/mL)
